For 30 molecules, fold induction results are on record in patent publication US10766869B2, “Triazoles for the treatment of demyelinating dieases” (Vertex Pharmaceuticals Incorporated, priority 2015, dated 2020).

The subject of the assay is primary rat mixed cortical cells. Briefly: In vitro myelination assay (MBP positive myelin strands, fold myelin pixels above background). It counts as cell-based. Particulars: Rattus norvegicus, relative to baseline of no added compound, read-out: Fold myelin pixels above background; for fold induction at 1 µM: 1.0 μM compound; for fold induction at 10 µM: 10.0 μM compound. Put shortly: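 P1 rat cortical cells (neurons, OPCs, oligodendrocytes, astrocytes, microglia) were cultured 14 days at 37 °C with compound, with half-medium changes containing 1× compound on days 6 and 10. Fixed cells were immunostained for MBP and imaged at 10×. Total MBP myelin pixels per well were expressed as fold above no-compound baseline at 1.0 μM and 10.0 μM.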

Take `Cc1cc(Nc2ncn(-c3cc(F)cc(F)c3)n2)cc(N2CCC3(COC3)C2)c1` [Compound 444, 1-(3,5-difluorophenyl)-N-[3-methyl-5-(2-oxa-7-azaspiro[3.4]octan-7-yl)phenyl]-1,2,4-triazol-3-amine]: the fold induction at 1 µM is at most 1 and the fold induction at 10 µM was in the range of 1 to 10.
As for `Cc1cc(Nc2ncn(-c3cccc(F)c3F)n2)cc(N2CCN(C3COC3)CC2)c1` [Compound 445, 1-(2,3-difluorophenyl)-N-[3-methyl-5-[4-(oxetan-3-yl)piperazin-1-yl]phenyl]-1,2,4-triazol-3-amine], the fold induction at 1 µM lay within 10 to 100 and the fold induction at 10 µM fell in the range of 10 to 100.
Take `Cc1cc(Nc2ncn(-c3ccccc3Cl)n2)cc(N2CCN(C3COC3)CC2)c1` [Compound 446, 1-(2-chlorophenyl)-N-[3-methyl-5-[4-(oxetan-3-yl)piperazin-1-yl]phenyl]-1,2,4-triazol-3-amine]: the fold induction at 1 µM lay within 1 to 10 and the fold induction at 10 µM lay within 1000 to 10000.
On the same counts, the results for `Cc1cc(Nc2ncn(-c3cncc(F)c3)n2)cc(C2COC2)c1` [Compound 447, 1-(5-fluoro-3-pyridyl)-N-[3-methyl-5-(oxetan-3-yl)phenyl]-1,2,4-triazol-3-amine] are 10 to 100 and 10 to 100.
`Cc1cc(Nc2ncn(-c3cc(F)cc(F)c3)n2)cc(NC2CC2)c1` [Compound 448, N1-cyclopropyl-N3-[1-(3,5-difluorophenyl)-1,2,4-triazol-3-yl]-5-methyl-benzene-1,3-diamine]: the fold induction at 1 µM lay within 100 to 1000 and the fold induction at 10 µM is 1 to 10.
`CC(=O)N1CCCC(c2cc(C)cc(Nc3ncn(-c4ccncn4)n3)c2)C1` (stereo not drawn) [Compound 449, 1-[3-[3-methyl-5-[(1-pyrimidin-4-yl-1,2,4-triazol-3-yl)amino]phenyl]-1-piperidyl]ethanone]: the fold induction at 1 µM lay in the range of 100 to 1000 and the fold induction at 10 µM is at most 1.
With `CN1CCN(c2cc(F)cc(Nc3ncn(-c4ccc(F)cc4F)n3)c2)CC1` [Compound 450, 1-(2,4-difluorophenyl)-N-[3-fluoro-5-(4-methylpiperazin-1-yl)phenyl]-1,2,4-triazol-3-amine], the fold induction at 1 µM was at most 1 and the fold induction at 10 µM was at most 1.
Turning to `Cc1cc(N2CCOCC2)cc(Nc2ncn(-c3cccnc3)n2)c1F` [Compound 451, N-(2-fluoro-3-methyl-5-morpholino-phenyl)-1-(3-pyridyl)-1,2,4-triazol-3-amine], the fold induction at 1 µM lay in the range of 1 to 10 and the fold induction at 10 µM was in the range of 100 to 1000.
On the same counts, the results for `Fc1cc(Nc2ncn(-c3ccccc3)n2)cc(C2CCNC2)c1` (stereo not drawn) [Compound 452, N-(3-fluoro-5-pyrrolidin-3-yl-phenyl)-1-phenyl-1,2,4-triazol-3-amine] are 10 to 100 and at most 1.
On the same counts, the results for `Cc1cc(Nc2ncn(-c3cc(F)cc(F)c3)n2)cc(N2CCN(C3CC(F)(F)C3)CC2)c1` [Compound 453, N-[3-[4-(3,3-difluorocyclobutyl)piperazin-1-yl]-5-methyl-phenyl]-1-(3,5-difluorophenyl)-1,2,4-triazol-3-amine] are 10 to 100 and 1000 to 10000.
On the same counts, the results for `Cc1nccc(-n2cnc(Nc3cc(C4CC4)cc(N4CCN(C5COC5)CC4)c3)n2)n1` [Compound 454, N-[3-cyclopropyl-5-[4-(oxetan-3-yl)piperazin-1-yl]phenyl]-1-(2-methylpyrimidin-4-yl)-1,2,4-triazol-3-amine] are at most 1 and 1 to 10.
With `Cc1cc(Nc2ncn(-c3ccccc3)n2)cc(N2CCN(c3ccccc3F)CC2)c1` [Compound 455, N-[3-[4-(2-fluorophenyl)piperazin-1-yl]-5-methyl-phenyl]-1-phenyl-1,2,4-triazol-3-amine], the fold induction at 1 µM was at most 1 and the fold induction at 10 µM was 10 to 100.
With `Fc1cc(F)cc(-n2cnc(Nc3cc(C4CCOC4)cc(N4CCOCC4)c3)n2)c1` (stereo not drawn) [Compound 456, 1-(3,5-difluorophenyl)-N-(3-morpholino-5-tetrahydrofuran-3-yl-phenyl)-1,2,4-triazol-3-amine], the fold induction at 1 µM was 1000 to 10000 and the fold induction at 10 µM fell in the range of 100 to 1000.
With `Cc1cc(Nc2ncn(-c3cc(F)cc(F)c3)n2)cc(N2CCC(F)CC2)n1` [Compound 457, N-[1-(3,5-difluorophenyl)-1,2,4-triazol-3-yl]-2-(4-fluoro-1-piperidyl)-6-methyl-pyridin-4-amine], the fold induction at 1 µM lay in the range of 1000 to 10000 and the fold induction at 10 µM fell in the range of 1000 to 10000.
For the molecule `Cc1cc(Nc2ncn(-c3cc(F)cc(F)c3)n2)cc(N2CCN(C(=O)C3CC3)CC2)c1` [Compound 458], the fold induction at 1 µM was 1000 to 10000 and the fold induction at 10 µM is 100 to 1000.
Take `Cc1cc(Nc2ncn(-c3cc(F)cc(F)c3)n2)cc(N2C[C@H]3C[C@@H]2CN3C)c1` [Compound 459, 1-(3,5-difluorophenyl)-N-[3-methyl-5-[(1R,4R)-5-methyl-2,5-diazabicyclo[2.2.1]heptan-2-yl]phenyl]-1,2,4-triazol-3-amine]: the fold induction at 1 µM fell in the range of 10 to 100 and the fold induction at 10 µM is at most 1.
On the same counts, the results for `F[C@H]1CCN(c2cc(Nc3ncn(-c4ccccc4)n3)cc(C3CC3)n2)C1` [Compound 460, 2-cyclopropyl-6-[(3S)-3-fluoropyrrolidin-1-yl]-N-(1-phenyl-1,2,4-triazol-3-yl)pyridin-4-amine] are 100 to 1000 and 10 to 100.
On the same counts, the results for `Cc1cc(Nc2ncn(-c3ccccc3)n2)cc(N2CCN(CC(C)(C)O)CC2)c1` [Compound 461, 2-methyl-1-[4-[3-methyl-5-[(1-phenyl-1,2,4-triazol-3-yl)amino]phenyl]piperazin-1-yl]propan-2-ol] are 1000 to 10000 and at most 1.
On the same counts, the results for `Fc1cccc(-n2cnc(Nc3cc(C4CC4)cc(N4CCN(C5COC5)CC4)c3)n2)c1` [Compound 462, N-[3-cyclopropyl-5-[4-(oxetan-3-yl)piperazin-1-yl]phenyl]-1-(3-fluorophenyl)-1,2,4-triazol-3-amine] are 100 to 1000 and at most 1.
`CCc1cc(Nc2ncn(-c3cccc(SC)c3)n2)cc(N2CCN(C3COC3)CC2)c1` [Compound 463, N-[3-ethyl-5-[4-(oxetan-3-yl)piperazin-1-yl]phenyl]-1-(3-methylsulfanylphenyl)-1,2,4-triazol-3-amine]: the fold induction at 1 µM lay in the range of 1 to 10 and the fold induction at 10 µM was at most 1.
On the same counts, the results for `COCC1CCN(c2cc(C)cc(Nc3ncn(-c4ccncn4)n3)c2)CC1` [Compound 464, N-[3-[4-(methoxymethyl)-1-piperidyl]-5-methyl-phenyl]-1-pyrimidin-4-yl-1,2,4-triazol-3-amine] are 10 to 100 and 100 to 1000.
On the same counts, the results for `C1=C(c2cc(Nc3ncn(-c4ccccc4)n3)cc(N3CCOCC3)c2)COC1` [Compound 465, N-[3-(2,5-dihydrofuran-3-yl)-5-morpholino-phenyl]-1-phenyl-1,2,4-triazol-3-amine] are 100 to 1000 and at most 1.
As to `Cc1cc(Nc2ncn(-c3cc(F)cc(F)c3)n2)cc(C2CCCN(C3CC3)C2)c1` (stereo not drawn) [Compound 466, N-[3-(1-cyclopropyl-3-piperidyl)-5-methyl-phenyl]-1-(3,5-difluorophenyl)-1,2,4-triazol-3-amine], the fold induction at 1 µM lay in the range of 100 to 1000 and the fold induction at 10 µM was at most 1.
On the same counts, the results for `Cc1cc(Nc2ncn(-c3cc(F)cc(N4CC[C@@H](F)C4)c3)n2)cc(N2CCN(C3COC3)CC2)c1` [Compound 467, 1-[3-fluoro-5-[(3R)-3-fluoropyrrolidin-1-yl]phenyl]-N-[3-methyl-5-[4-(oxetan-3-yl)piperazin-1-yl]phenyl]-1,2,4-triazol-3-amine] are 100 to 1000 and 10 to 100.
Take `CCc1cc(Nc2ncn(-c3cccc(F)c3)n2)cc(N2CCN(C3COC3)CC2)c1` [Compound 468, N-[3-ethyl-5-[4-(oxetan-3-yl)piperazin-1-yl]phenyl]-1-(3-fluorophenyl)-1,2,4-triazol-3-amine]: the fold induction at 1 µM lay in the range of 100 to 1000 and the fold induction at 10 µM was 1 to 10.
On the same counts, the results for `Cc1cc(Nc2ncn(-c3cc(F)ccc3F)n2)cc(N2CCN(C3(C)COC3)CC2)c1` [Compound 469, 1-(2,5-difluorophenyl)-N-[3-methyl-5-[4-(3-methyloxetan-3-yl)piperazin-1-yl]phenyl]-1,2,4-triazol-3-amine] are 100 to 1000 and 10 to 100.
On the same counts, the results for `Cc1cc(N2CCN(C3COC3)CC2)cc(Nc2ncn(-c3cnccn3)n2)c1C` [Compound 470, N-[2,3-dimethyl-5-[4-(oxetan-3-yl)piperazin-1-yl]phenyl]-1-pyrazin-2-yl-1,2,4-triazol-3-amine] are 10 to 100 and 100 to 1000.
As to `COc1c(C)cc(N2CCN(C3COC3)CC2)cc1Nc1ncn(-c2cnccn2)n1` [Compound 471, N-[2-methoxy-3-methyl-5-[4-(oxetan-3-yl)piperazin-1-yl]phenyl]-1-pyrazin-2-yl-1,2,4-triazol-3-amine], the fold induction at 1 µM lay within 1 to 10 and the fold induction at 10 µM is at most 1.
Regarding `Cc1cc(Nc2ncn(-c3cc(F)cc(F)c3)n2)cc(NC2CCN(C3COC3)C2)c1` (stereo not drawn) [Compound 472, N3-[1-(3,5-difluorophenyl)-1,2,4-triazol-3-yl]-5-methyl-N1-[1-(oxetan-3-yl)pyrrolidin-3-yl]benzene-1,3-diamine], the fold induction at 1 µM was in the range of 100 to 1000 and the fold induction at 10 µM is at most 1.
As for `Fc1cc(F)cc(-n2cnc(Nc3cc(N4CCOCC4)cc(C(F)(F)F)c3)n2)c1` [Compound 475, 1-(3,5-difluorophenyl)-N-[3-morpholino-5-(trifluoromethyl)phenyl]-1,2,4-triazol-3-amine], the fold induction at 1 µM lay in the range of 100 to 1000 and the fold induction at 10 µM was in the range of 1000 to 10000.
